Measured values: patent publication US10842868B2 (priority 2012, dated 2020)

Columns and labels:
[1] = type: physicochemical; settings: K2 10, 50, 250 or 500 μg/ml; Al—H 3 mg/ml; all strengths
Experimental: Compound K2 is added to water at 4mg/ml, then 1M NaOH is added to ensure full solubilisation, with stirring for 15 minutes at room temperature. This material is added to a suspension of aluminium hydroxide adjuvant (Al—H) to give the desired final concentration. This mixture is shaken for 2 hours at ambient temperature to ensure full adsorption, and then histidine buffer components are added (10mM histidine buffer, pH 6.5).
Four different mixtures are prepared, giving a final K2 concentration of 10, 50, 250 or 500 μg/ml (to provide a 1, 5, 25 or 50 μg dose of K2 in a 100 μl dosage volume); the Al—H concentration is always 3 mg/ml. At all strengths >95% of compound K2 is adsorbed to the Al—H. The adsorbed adjuvant is referred to hereafter as “Al—H/K2”.

DT, TT, PT, FHA and 69K = type: physicochemical

## Cc1cc(OCCOCCOCCP(=O)(O)O)ccc1CCc1cnc2c(N)nc3cc(CCC(=O)O)ccc3c2c1 [K2, 3-(5-amino-2-(2-methyl-4-(2-(2-(2-phosphonoethoxy)ethoxy)ethoxy)phenethyl)benzo [f]-[1,7]naphthyridin-8-yl)propanoic acid]
[1]
  compound K2 adsorbed to the Al—H: > 95%
DT, TT, PT, FHA and 69K
  adsorption of all antigens: completely adsorbed
